Results: patent US6617118B2, “Monoclonal antibody for analysis and clearance of polyethylene glycol and polyethylene glycol-modified molecules” (priority 1999, dated 2003)

Legend:
[1] = tested on: LS174T tumor xenografts; assay: Therapy of LS174T tumor xenografts
Method: Therapy of LS174T Tumor Xenografts: Groups of 9 BALB/c nu/nu mice were s.c. injected on the right flank with 5×10^6 LS174T cells on day 1. […] 48 and 50 h later mice were i.v. injected with 2 sequential doses of 300 and 200 μg AGP3. […] Therapy was repeated starting on days 16, 26, and 41. All mice received 2-4 rounds of therapy. Tumor volumes (length×width×height×0.5) were measured twice a week and mice weight was followed as an estimate of treatment toxicity. […] Groups of 8 BALB/c nu/nu mice bearing larger 200-250 mm^3 tumors were also treated as above with 2 rounds of therapy starting on days 11 and 23.
Therapy was repeated starting on days 16, 26 and 41. […] Bars indicate the standard error of the mean. […] Soluble IgM immune complexes are primarily removed from the circulation and catabolized by the mononuclear phagocyte system in the liver, spleen and lungs by receptor-mediated binding of high mannose oligosaccharides exposed upon conformational changes in IgM induced by antigen binding (Day et al., 1980).

[2] = tested on: LS174T cells; assay: Drug sensitivity of LS174T cells ([3H]-leucine incorporation); conditions: BHAMG plus 1 μg/well βG, 24 h
Method: Drug sensitivity of LS174T cells: LS174T cells were plated overnight in 96 well microtiter plates at 40,000 cells per well. […] Cells were subsequently washed once with sterile PBS, incubated until hour 48 in fresh leucine-free medium and then pulsed for 12 h with [^3H]-leucine (1 μCi/well) in fresh medium and harvested with a Filter-mate (Packard). Incorporated radioactivity was determined on a Top-Count scintillation counter (Packard). Results are expressed as percentage inhibition of [^3H]-leucine incorporation compared with untreated cells (control) by the following formula: [formula]
The cellular protein synthesis rate of drug-treated cells is compared to untreated control cells. Bars indicate the standard error of triplicate determinations.

[3] = Toxicity of clearance and BHAMG prodrug administration; assay type: in vivo, BALB/c mice; conditions: AGP3 and 15 mg/kg BHAMG, no βG-sPEG
Method: Toxicity of Clearance: The numbers of WBC, RBC, and PLT in groups of 6 BALB/c mice were measured as described (Chen et al., 1997) 1 day before i.v. injection of 50 μg of βG-PEG or PBS. […] On day 8, the numbers of WBC, RBC, and PLT in […] samples were determined. On days 3 and 10, the spleen, liver and kidney were removed from one mouse in each group and fixed in 10% formalin. Ethanol dehydrated samples were embedded in paraffin and cut into 3 μm sections. Sections were then dewaxed with xylene, stained with hematoxylin/eosin, and dehydrated before observation under a light microscope. The weight of mice was followed for 18 days.
One concern of employing IgM to clear proteins is that the immune complexes could be deposited in organs and cause tissue damage. In addition, deposition of βG-PEG on the surface of cells could result in prodrug activation and tissue toxicity. […] Mice were injected with PBS (A-C) or βG-sPEG (D-F) on day 1. […] Tissue sections of liver (A, D), kidney (B, E), and spleen (C, F) recovered 10 days later were stained with hematoxylin and eosin. […] Similarly, no tissue damage was observed 3 days after prodrug administration (results not shown).
Groups of 4 mice were i.v. injected at time zero with PBS (control) or βG-sPEG. […] Six hours later, all mice were i.v. injected with BHAMG. […]

In the case of `O=C(O)[C@H]1O[C@@H](Oc2ccc(N(CCCl)CCCl)cc2)[C@H](O)[C@@H](O)[C@@H]1O` [BHAMG], the Weight loss % ([1]; Round of therapy 1) was 1.7%, the Weight loss % ([1]; Round of therapy 2) was 4.0% and the Weight loss % ([1]; Round of therapy 3) was 1.7%. For the same molecule, the “cytotoxic effect with simultaneous addition of βG” value [2] was “cytotoxic effect equal to pHAM alone” and the “weight of mice, control group” value [3] was “only a small transient decrease”.
